Data as given in patent US12465616B2, “Methods and compositions for disrupting biofilm utilizing chitosan-derivative compounds” (SYNEDGEN, INC., priority 2009, dated 2025).

Tested on: MRSA MW-2
Assay: Prophylactic activity on pigskin
Format: cell-based, Staphylococcus aureus
Settings: treatment dried 1-hour, about 10^3 CFU for 1-hour; chitosan-arginine 60 μg/cm^2 in 70% ethanol (21 kDa, 29% functionalized, FIG. 24); hydrogen peroxide 3%

| SMILES | prophylactic activity, qualitative CFU recovered from treated skin surface |
| --- | --- |
| CCO [70% ethanol, ethanol] | no prophylactic activity |
| OO [hydrogen peroxide] | no prophylactic activity |
